Measurements: PubChem BioAssay AID330 (DTP/NCI, 2004)
Where “and” joins values, the source holds several entries; their conditions need not be identical. Equal entries are not always repeated. Inconclusive results and toxic doses are left out.

Test system: P388 leukemia ip, CD2F1 mice, survival T/C
Assay: NCI In Vivo Anticancer Drug Screen. Data for tumor model P388 Leukemia (intraperitoneal) in CD2F1 (CDF1) mice
Details: endpoint: median survival time, higher = longer survival
In short: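 Mice carrying the transplanted tumor received test compound or vehicle. Survival was recorded in each group, and the value is the treated-group measurement divided by that of the vehicle-treated control group.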

[1] = dose: 60.0 mg/kg/injection, schedule: Q01DX005 (ip), vehicle: saline with Tween-80
[2] = dose: 120.0 mg/kg/injection, schedule: Q01DX005 (ip), vehicle: saline with Tween-80
[3] = dose: 240.0 mg/kg/injection, schedule: Q01DX005 (ip), vehicle: saline with Tween-80
[4] = dose: 12.5 mg/kg/injection, schedule: Q01DX009 (ip), vehicle: saline with Tween-80
[5] = dose: 25.0 mg/kg/injection, schedule: Q01DX009 (ip), vehicle: saline with Tween-80
[6] = dose: 200.0 mg/kg/injection, schedule: Q01DX009 (ip), vehicle: saline with Tween-80
[7] = dose: 50.0 mg/kg/injection, schedule: Q01DX005 (ip), vehicle: saline with Tween-80
[8] = dose: 100.0 mg/kg/injection, schedule: Q01DX005 (ip), vehicle: saline with Tween-80
[9] = dose: 200.0 mg/kg/injection, schedule: Q01DX005 (ip), vehicle: saline with Tween-80
[10] = dose: 50.0 mg/kg/injection, schedule: Q01DX005 (ip), vehicle: Klucel (hydroxypropylcellulose) (HPC)
[11] = dose: 100.0 mg/kg/injection, schedule: Q01DX005 (ip), vehicle: Klucel (hydroxypropylcellulose) (HPC)
[12] = dose: 200.0 mg/kg/injection, schedule: Q01DX005 (ip), vehicle: Klucel (hydroxypropylcellulose) (HPC)
[13] = dose: 50.0 mg/kg/injection, schedule: Q01DX009 (ip), vehicle: saline with Tween-80
[14] = dose: 100.0 mg/kg/injection, schedule: Q01DX009 (ip), vehicle: saline with Tween-80
[15] = dose: 50.0 mg/kg/injection, schedule: Q01DX005 (ip), vehicle: saline
[16] = dose: 100.0 mg/kg/injection, schedule: Q01DX005 (ip), vehicle: saline
[17] = dose: 200.0 mg/kg/injection, schedule: Q01DX005 (ip), vehicle: saline
[18] = dose: 50.0 mg/kg/injection, schedule: Q01DX009 (ip), vehicle: Klucel (hydroxypropylcellulose) (HPC)
[19] = dose: 100.0 mg/kg/injection, schedule: Q01DX009 (ip), vehicle: Klucel (hydroxypropylcellulose) (HPC)
[20] = dose: 200.0 mg/kg/injection, schedule: Q01DX009 (ip), vehicle: Klucel (hydroxypropylcellulose) (HPC)
[21] = dose: 100.0 mg/kg/injection, schedule: Q04DX003 (ip), vehicle: saline
[22] = dose: 200.0 mg/kg/injection, schedule: Q04DX003 (ip), vehicle: saline
[23] = dose: 400.0 mg/kg/injection, schedule: Q04DX003 (ip), vehicle: saline
[24] = dose: 50.0 mg/kg/injection, schedule: Q01DX009 (ip), vehicle: saline
[25] = dose: 25.0 mg/kg/injection, schedule: Q01DX009 (ip), vehicle: saline

In the case of `O=C(/N=C1\N=Nc2c(O)c(C3(c4nc5n(c4O)/C(=N/C(=O)Nc4ccc(Cl)cc4)N=N5)Cc4ccccc4C3=O)nn21)Nc1ccc(Cl)cc1` (centres undefined), the T/C [1] is reported as 101 % of control, the T/C [2] is reported as 94 % of control and the T/C [3] is reported as 94 % of control.

In the case of `C[N+]1(CSc2ccccc2)CCCCC1`, the T/C [4] is reported as 100 % of control and the T/C [5] is reported as 98 % of control.

`COc1cc2c(cc1OC)CN1CCCC1C2` (centres undefined) was tested, and the T/C (dose: 6.25 mg/kg/injection, schedule: Q01DX005 (ip), vehicle: saline with Tween-80) was 97 % of control, the T/C (dose: 12.5 mg/kg/injection, schedule: Q01DX005 (ip), vehicle: saline with Tween-80) was 108 % of control and the T/C (dose: 25.0 mg/kg/injection, schedule: Q01DX005 (ip), vehicle: saline with Tween-80) was 101 % of control.

`COc1ccc2c(OC)c(CC(=O)C(C)(C)O)c(=O)n(C)c2c1OC` was tested, and the T/C (dose: 19.0 mg/kg/injection, schedule: Q01DX005 (ip), vehicle: Klucel (hydroxypropylcellulose) (HPC)) was 96 % of control, the T/C (dose: 38.0 mg/kg/injection, schedule: Q01DX005 (ip), vehicle: Klucel (hydroxypropylcellulose) (HPC)) was 92 % of control and the T/C (dose: 76.0 mg/kg/injection, schedule: Q01DX005 (ip), vehicle: Klucel (hydroxypropylcellulose) (HPC)) was 88 % of control. The T/C (dose: 152.0 mg/kg/injection, schedule: Q01DX005 (ip), vehicle: Klucel (hydroxypropylcellulose) (HPC)) was 91 % of control.

`CCOCN(COCC)c1ccc(Cl)cc1` was tested, and the T/C [6] was 164 % of control.

In the case of `CCCCCCCCCCCc1c(O)c(O)c(-c2ccccn2)c2nonc12`, the T/C [7] is reported as 106 % of control, the T/C [8] is reported as 103 % of control and the T/C [9] is reported as 98 % of control.

In the case of `C(=Nc1ccccc1)C1=C(Nc2ccccc2)CCC1`, the T/C [10] is reported as 100 % of control, the T/C [11] is reported as 100 % of control and the T/C [12] is reported as 106 % of control.

In the case of `Nc1ncnn1Cc1ccccc1`, the T/C [5] is reported as 104 % of control, the T/C [13] is reported as 100 % of control and the T/C [14] is reported as 101 % of control. For the same molecule, the T/C [6] was 102 % of control.

With `CCCC(O)CCC(O)=C1C(=O)CCC1=O` (centres undefined) the T/C [15] was 107 % of control, the T/C [16] was 107 % of control and the T/C [17] was 107 % of control.

In the case of `CCOP(=O)(O)C1CCCC(C)[N-]1.CCOP(=O)(O)C1CCCC(C)[N-]1.CCOP(=O)(O)C1CCCC(C)[N-]1.[Cr+3]` (centres undefined), the T/C (dose: 100.0 mg/kg/injection, schedule: Q04DX003 (ip), vehicle: Klucel (hydroxypropylcellulose) (HPC)) is reported as 100 % of control and the T/C (dose: 200.0 mg/kg/injection, schedule: Q04DX003 (ip), vehicle: Klucel (hydroxypropylcellulose) (HPC)) is reported as 92 % of control.

With `COc1ccc(Nc2c3ccccc3nc3ccccc23)cc1` the T/C [4] was 111 % of control, the T/C [13] was 151 % of control and the T/C [14] was 109 % of control.

For `NC(CC(=O)c1ccc(O)cc1)C(=O)O` (centres undefined), the T/C [18] was 99 % of control, the T/C [19] was 100 % of control and the T/C [20] was 92 % of control.

With `Oc1ccc2c(c1)Cc1cc3ccccc3nc1-2` the T/C (dose: 25.0 mg/kg/injection, schedule: Q01DX009 (ip), vehicle: Klucel (hydroxypropylcellulose) (HPC)) was 101 % of control, the T/C [18] was 98 % of control and the T/C [19] was 94 % of control. For the same molecule, the T/C [20] was 103 % of control.

With `Cn1c(=O)c2c(nc(/N=C/c3ccc([N+](=O)[O-])cc3)n2C)n(C)c1=O` the T/C [21] was 100 % of control, the T/C [22] was 86 % of control and the T/C [23] was 93 % of control.

`O=C(O)C/[N+]([O-])=N\O` was tested, and the T/C [24] was 102 % of control, the T/C (dose: 100.0 mg/kg/injection, schedule: Q01DX009 (ip), vehicle: saline) was 102 % of control and the T/C [21] was 104 % of control. For the same molecule, the T/C (dose: 200.0 mg/kg/injection, schedule: Q01DX009 (ip), vehicle: saline) was 96 % of control, the T/C [22] was 105 % of control and the T/C (dose: 400.0 mg/kg/injection, schedule: Q01DX009 (ip), vehicle: saline) was 94 % of control. For the same molecule, the T/C [23] was 92 % of control.

`COc1cccc(C[n+]2ccccc2C#N)c1` was tested, and the T/C (dose: 12.5 mg/kg/injection, schedule: Q01DX009 (ip), vehicle: saline) was 100 % of control, the T/C [25] was 106 % of control and the T/C [24] was 100 % of control and 96 % of control.

`Cc1ccc(N=S(C)(C)=O)cc1` was tested, and the T/C (dose: 100.0 mg/kg/injection, schedule: Q01DX001 (ip), vehicle: saline with Tween-80) was 103 % of control, the T/C (dose: 200.0 mg/kg/injection, schedule: Q01DX001 (ip), vehicle: saline with Tween-80) was 104 % of control and the T/C (dose: 400.0 mg/kg/injection, schedule: Q01DX001 (ip), vehicle: saline with Tween-80) was 102 % of control.

`CC(N)(CO)C(=O)O` (centres undefined) was tested, and the T/C [21] was 104 % of control, the T/C [22] was 90 % of control and the T/C [23] was 100 % of control.

In the case of `CC1OC(Oc2c(-c3ccc(O)c(O)c3O)oc3cc(O)ccc3c2=O)C(O)C(O)C1O` (centres undefined), the T/C [1] is reported as 102 % of control, the T/C [2] is reported as 98 % of control and the T/C [3] is reported as 99 % of control.

With `S=P(N1CC1)(N1CC1)N1CC1.[Cl-].[Cl-].[NH2-].[NH2-].[Pt+4]` the T/C (dose: 0.78 mg/kg/injection, schedule: Q01DX009 (ip), vehicle: saline) was 104 % of control, the T/C (dose: 1.56 mg/kg/injection, schedule: Q01DX009 (ip), vehicle: saline) was 113 % of control and 101 % of control and the T/C (dose: 6.25 mg/kg/injection, schedule: Q01DX009 (ip), vehicle: saline) was 178 % of control and 150 % of control and 166 % of control. The T/C [25] was 88 % of control.

With `Cn1c(=O)n2n(c1=O)C1CCC2CC1` the T/C [15] was 98 % of control, the T/C [16] was 102 % of control and the T/C [17] was 100 % of control.

With `CCOc1ccc(N=NC2C(=O)N(c3cccc(Cl)c3Cl)C(=S)N(c3ccc(OC)cc3)C2O)cc1` (centres undefined) the T/C (dose: 100.0 mg/kg/injection, schedule: Q01DX001 (ip), vehicle: Klucel (hydroxypropylcellulose) (HPC)) was 100 % of control, the T/C (dose: 200.0 mg/kg/injection, schedule: Q01DX001 (ip), vehicle: Klucel (hydroxypropylcellulose) (HPC)) was 96 % of control and the T/C (dose: 400.0 mg/kg/injection, schedule: Q01DX001 (ip), vehicle: Klucel (hydroxypropylcellulose) (HPC)) was 96 % of control.

In the case of `CC(OCc1ccccc1)C(NC(=O)OC(C)(C)C)C(=O)O` (centres undefined), the T/C [10] is reported as 113 % of control, the T/C [7] is reported as 103 % of control and the T/C [11] is reported as 94 % of control. The T/C [8] was 100 % of control, the T/C [12] was 96 % of control and the T/C [9] was 98 % of control.

With `Cc1ccc(C(c2ccccc2)c2ccc(C)cc2O)c(O)c1` the T/C [13] was 118 % of control and the T/C [14] was 105 % of control.

For `CCOC(=O)COc1ccc2c(C)cc(=O)oc2c1[N+](=O)[O-]`, the T/C [1] was 102 % of control, the T/C [2] was 99 % of control and the T/C [3] was 98 % of control.

`CCOC(=O)C1C[S][Sn]2([NH]1)[NH]C(C(=O)OCC)C[S]2` (centres undefined) was tested, and the T/C [10] was 99 % of control, the T/C [11] was 106 % of control and the T/C [12] was 101 % of control.

`Cc1ccccc1C1NC(c2ccccc2C)C2CCCC1C2=O` (centres undefined) was tested, and the T/C [21] was 89 % of control, the T/C [22] was 96 % of control and the T/C [23] was 93 % of control.

In the case of `COC(=S)NC(=O)c1ccc(F)cc1`, the T/C [13] is reported as 103 % of control, the T/C [14] is reported as 112 % of control and the T/C [6] is reported as 117 % of control. For the same molecule, the T/C (dose: 400.0 mg/kg/injection, schedule: Q01DX009 (ip), vehicle: saline with Tween-80) was 110 % of control.

In the case of `c1cnc(NC(Nc2ncccn2)C2CCCCC2)nc1`, the T/C (dose: 60.0 mg/kg/injection, schedule: Q01DX005 (ip), vehicle: Klucel (hydroxypropylcellulose) (HPC)) is reported as 100 % of control, the T/C (dose: 120.0 mg/kg/injection, schedule: Q01DX005 (ip), vehicle: Klucel (hydroxypropylcellulose) (HPC)) is reported as 100 % of control and the T/C (dose: 240.0 mg/kg/injection, schedule: Q01DX005 (ip), vehicle: Klucel (hydroxypropylcellulose) (HPC)) is reported as 94 % of control.

For `CC(=O)Nc1ccn(C2OC(COC(C)=O)C(OC(C)=O)C2OC(C)=O)c(=O)n1` (centres undefined), the T/C (dose: 62.5 mg/kg/injection, schedule: Q01DX009 (ip), vehicle: Klucel (hydroxypropylcellulose) (HPC)) was 102 % of control, the T/C (dose: 125.0 mg/kg/injection, schedule: Q01DX009 (ip), vehicle: Klucel (hydroxypropylcellulose) (HPC)) was 119 % of control and the T/C (dose: 250.0 mg/kg/injection, schedule: Q01DX009 (ip), vehicle: Klucel (hydroxypropylcellulose) (HPC)) was 157 % of control. The T/C (dose: 500.0 mg/kg/injection, schedule: Q01DX009 (ip), vehicle: Klucel (hydroxypropylcellulose) (HPC)) was 155 % of control and the T/C (dose: 1000.0 mg/kg/injection, schedule: Q01DX009 (ip), vehicle: Klucel (hydroxypropylcellulose) (HPC)) was 174 % of control.
